# Test results taken from US5292521A, “Solid oral preparation containing a pyrrolidine derivative with a catechol group” (priority 1990, dated 1994).
# Like-named read-outs stand apart in the source and are kept apart here.
# Experiments:
# [1] = Oral administration to fasted beagles with L-cysteine or L-aspartic acid, plasma drug disposition parameters (Experimental Example 4); type: in vivo; conditions: for AUC(0-t) at 8 h / Cmax / Tmax: dog, plasma, po, 3 mg/kg; for AUC(0-t) at 8 h: read-out: AUC (0-8 hr) mean ± SE; for Cmax: read-out: Cmax mean ± SE; for Tmax: read-out: Tmax mean ± SE
# Experimental: A similar mixture to that described above was prepared except that L-cysteine was replaced by 350 mg of L-aspartic acid.
# (§1) (a) Administration and collection of blood sample
# An internal standard substance (IS 20 ng in 200 μl) was added to 1 ml of blood plasma. After dilution with 2 ml of water, the aqueous solution was passed through a BONDELUTE (trade name) C18 column previously washed with 3 ml of methanol containing 0.1% of acetic acid and 9 ml of water. After further washing with 9 ml of water and 2 ml of acetonitrile, the sample was eluted with 1.2 ml of methanol containing 0.1% of perchloric acid. The solvent was distilled off and the residue was dissolved in 200 μl of a 0.1% acetic acid aqueous solution/methanol mixture (2/1, V/V). 50 to 100 μl thereof was injected into an instrument for HPLC for determination. Separately, blood plasma containing known amounts of compound (IX) and IS was treated to prepare an addition/recovery calibration curve. The concentration was determined from the ratio of the peak height of compound (IX) to that of IS. The detection limit in this method was 0.05 ng/ml of plasma.
# (§2) (c) HPLC determination conditions
# A HPLC pump used was CCPD mfd. by Toyo Soda Mfg. Co., Ltd. 1.35 ml/min of an aqueous solution containing 0.1% of perchloric acid and 0.01% of a disodium ethylenediaminetetraacetate/methanol mixture 80:9 (V/V) was introduced therein. The sample was injected into the instrument with a WISP 710B auto-sampler mfd. by Waters at intervals of about 50 minutes. A reversed phase ODS-120 T column (4.6×250 mm) with a prefilter was used as the analysis column. The detector used was an ECD-100 electrochemical detector mfd. by Acome. The voltage was +650 mV (against a SEC electrode).
# [2] = Oral administration to fasted beagles with ascorbic, citric or tartaric acid, plasma drug disposition parameters (Experimental Example 3); type: in vivo; conditions: for AUC(0-t) at 6 h / Cmax / Tmax: dog, plasma, po, 3 mg/kg, n=4; for AUC(0-t) at 6 h: read-out: AUC (0-6 hr) mean ± SE; for Cmax: read-out: Cmax mean ± SE; for Tmax: read-out: Tmax mean ± SE (converted)
# Text: Compound (IX) and ascorbic acid, citric acid or tartaric acid were weighed, pulverized thoroughly and mixed together in an agate mortar. The mixture was divided into portions and filled in gelatin capsules (No. 1 or No. 00) and the gap in each capsule was further filled with lactose to obtain a sample. Separately, compound (IX) was formulated into a powder of five-fold dilution with lactose and filled in capsules in a similar manner to that described above to obtain a control sample.
# The dose of compound (IX) was adjusted to 3 mg/kg in all the cases, while that of ascorbic acid was adjusted to three levels, i.e. 3 mg/kg, 9 mg/kg and 15 mg/kg and that of each of citric acid and tartaric acid was adjusted to one level of 15 mg/kg.
# as §1
# The capsule of compound (IX) was given to each of 4 beagles (average body weight 9.53 kg) together with 30 ml of water by oral administration after fasting overnight (14 hours). The experiment was conducted by the crossover administration method while the beagles were kept fasting.
# An internal standard substance (IS 50 ng in 50 μl) was added to 1 ml of blood plasma. After extraction with 5 ml of ethyl acetate, the solvent was distilled off. 100 μl of a citrate buffer solution (pH 3.5) was added thereto to form a solution again, which was washed with 1 ml of diethyl ether. The lower layer was separated and 50 μl of methanol was added thereto. 50 to 100 μl thereof was injected into an instrument for high-performance liquid chromatography (HPLC) for determination. Separately, blood plasma containing known amounts of compound (IX) and IS was treated to prepare an addition/recovery calibration curve. The concentration was determined from the ratio of the peak height of compound (IX) to that of IS. The detection limit in this method was 0.2 ng/ml of plasma.
# as §2
# A HPLC pump used was CCPD mfd. by Toyo Soda Mfg. Co., Ltd. 1.5 ml/min of a citrate buffer (pH 3.5)/methanol mixture 80:1 (V/V) was introduced therein. The sample was injected into the instrument with a WISP 710B auto-sampler mfd. by Waters at intervals of about 50 minutes. A reversed phase Nucleosil (trade name) 7C6H5 column (4.6×250 mm) with a prefilter was used as the analysis column. The detector used was an ECD-100 electrochemical detector mfd. by Acome. The voltage was +650 mV (against a SEC electrode).
# The citrate buffer solution (pH 3.5) was prepared by dissolving 26.25 g of citric acid, 16.58 g of anhydrous sodium acetate, 12.25 g of sodium hydroxide, 0.8375 g of disodium ethylenediaminetetraacetate, 93.8 ml of glacial acetic acid and 35.9 ml of 60% perchloric acid in 2500 ml of distilled water.
# The AUC value in the period of 0 to 6 hours was determined from each of these curves. The results are given in FIG. 6, which is a bar graph for the comparison of the AUC values of the respective samples.
# [3] = 3 mg/kg oral + L-aspartic acid 15 mg/kg, n=2
# [4] = 3 mg/kg oral + L-cysteine 15 mg/kg, n=2
# [5] = 3 mg/kg oral, none (control), n=4
# [6] = 3 mg/kg oral + ascorbic acid 3 mg/kg (1:1)
# [7] = 3 mg/kg oral + ascorbic acid 9 mg/kg (1:3)
# [8] = 3 mg/kg oral + ascorbic acid 15 mg/kg (1:5)
# [9] = 3 mg/kg oral + citric acid 15 mg/kg (1:5)
# [10] = 3 mg/kg oral + tartaric acid 15 mg/kg (1:5)
# [11] = 3 mg/kg oral, no organic acid (control)
smiles,measurement,setting,value
Oc1ccc([C@@H]2CNC[C@H]2c2cccc(O)c2Cl)cc1O (relative stereo) [compound (IX)],Addition effect (AUC ratio),[1]; 3 mg/kg oral + L-aspartic acid 15 mg/kg,2.46
same,Addition effect (AUC ratio),[1]; 3 mg/kg oral + L-cysteine 15 mg/kg,1.59
same,Addition effect (AUC ratio),"[1]; 3 mg/kg oral, none (control)",1.00
same,effect relative to that obtained by adding tartaric acid,[1]; L-cysteine and L-aspartic acid,~2.7 times
same,AUC(0-t) at 8 h,[1]; [3],37.5 ± 0.2 ng·h/mL
same,Cmax,[1]; [3],48.2 ± 2.5 ng/mL
same,Tmax,[1]; [3],45 ± 15 min
same,AUC(0-t) at 8 h,[1]; [4],24.4 ± 1 ng·h/mL
same,Cmax,[1]; [4],15.3 ± 2.7 ng/mL
same,Tmax,[1]; [4],70.2 ± 50.4 min
same,Cmax,[1]; [5],21 ± 5.3 ng/mL
same,Tmax,[1]; [5],43.8 ± 16.8 min
same,increase of AUC value,[1]; with L-aspartic acid,2.46 -fold
same,increase of AUC value,[1]; with L-cysteine,1.59 -fold
same,Addition effect ratio,"[2]; 3 mg/kg oral + ascorbic acid 3 mg/kg (1:1), AUC ratio to no additive",1.9
same,Addition effect ratio,"[2]; 3 mg/kg oral + ascorbic acid 9 mg/kg (1:3), AUC ratio to no additive",4.8
same,increase of AUC value vs no added acid,[2]; 3 mg/kg oral + ascorbic acid 15 mg/kg,7 -fold
same,Addition effect ratio,"[2]; 3 mg/kg oral + ascorbic acid 15 mg/kg (1:5), AUC ratio to no additive",7.0
same,Addition effect ratio,"[2]; 3 mg/kg oral + citric acid 15 mg/kg (1:5), AUC ratio to no additive",3.3
same,Addition effect ratio,"[2]; 3 mg/kg oral + tartaric acid 15 mg/kg (1:5), AUC ratio to no additive",2.7
same,Addition effect ratio,"[2]; 3 mg/kg oral, no organic acid, base",1.0
same,AUC(0-t) at 6 h,[2]; [6],28.4 ± 6.5 ng·h/mL
same,Cmax,[2]; [6],33.8 ± 13.2 ng/mL
same,Tmax,[2]; [6],34 min
same,AUC(0-t) at 6 h,[2]; [7],72.6 ± 18.5 ng·h/mL
same,Cmax,[2]; [7],187 ± 91.7 ng/mL
same,Tmax,[2]; [7],43 min
same,AUC(0-t) at 6 h,[2]; [8],107 ± 14.6 ng·h/mL
same,Cmax,[2]; [8],139 ± 20.9 ng/mL
same,Tmax,[2]; [8],55 min
same,AUC(0-t) at 6 h,[2]; [9],50.7 ± 16.5 ng·h/mL
same,Cmax,[2]; [9],87.4 ± 30.2 ng/mL
same,Tmax,[2]; [9],29 min
same,AUC(0-t) at 6 h,[2]; [10],40.4 ± 7.8 ng·h/mL
same,Cmax,[2]; [10],61.5 ± 26.3 ng/mL
same,Tmax,[2]; [10],45 min
same,AUC(0-t) at 6 h,[2]; [11],15.2 ± 2.8 ng·h/mL
same,Cmax,[2]; [11],21 ± 5.3 ng/mL
same,Tmax,[2]; [11],44 min
same,increase of AUC value vs no added acid,[2]; with citric acid,3.3 -fold
same,increase of AUC value vs no added acid,[2]; with tartaric acid,2.7 -fold
